The CheMixHub viscosity set

Test: xn = mol fraction of the nth substance listed

CCCCCCO + CCCCCC
Details | viscosity [mPa·s]
293.15 K, 100 kPa, x1 = 0.0277 | 0.3397
293.15 K, 100 kPa, x1 = 0.05 | 0.3453
293.15 K, 100 kPa, x1 = 0.1 | 0.3793
293.15 K, 100 kPa, x1 = 0.1976 | 0.4607
293.15 K, 100 kPa, x1 = 0.2999 | 0.5855
293.15 K, 100 kPa, x1 = 0.3999 | 0.7701
293.15 K, 100 kPa, x1 = 0.5 | 1.068
293.15 K, 100 kPa, x1 = 0.6002 | 1.481
293.15 K, 100 kPa, x1 = 0.7 | 1.971
293.15 K, 100 kPa, x1 = 0.8 | 2.71
293.15 K, 100 kPa, x1 = 0.9096 | 3.927
298.15 K, 100 kPa, x1 = 0.0277 | 0.3247
298.15 K, 100 kPa, x1 = 0.05 | 0.329
298.15 K, 100 kPa, x1 = 0.1 | 0.3597
298.15 K, 100 kPa, x1 = 0.1976 | 0.433
298.15 K, 100 kPa, x1 = 0.2999 | 0.5506
298.15 K, 100 kPa, x1 = 0.3999 | 0.7084
298.15 K, 100 kPa, x1 = 0.5 | 0.9696
298.15 K, 100 kPa, x1 = 0.6002 | 1.328
298.15 K, 100 kPa, x1 = 0.7 | 1.765
298.15 K, 100 kPa, x1 = 0.8 | 2.381
298.15 K, 100 kPa, x1 = 0.9096 | 3.398
298.15 K, 101.33 kPa, x2 = 0.1327 | 3.088
298.15 K, 101.33 kPa, x2 = 0.1854 | 2.578
298.15 K, 101.33 kPa, x2 = 0.2308 | 2.207
298.15 K, 101.33 kPa, x2 = 0.3137 | 1.632
298.15 K, 101.33 kPa, x2 = 0.4404 | 1.072
298.15 K, 101.33 kPa, x2 = 0.4841 | 0.941
298.15 K, 101.33 kPa, x2 = 0.6117 | 0.648
298.15 K, 101.33 kPa, x2 = 0.7122 | 0.501
298.15 K, 101.33 kPa, x2 = 0.8046 | 0.408
298.15 K, 101.33 kPa, x2 = 0.8997 | 0.338
298.15 K, 101.33 kPa, x2 = 0.9493 | 0.309
303 K, 101.33 kPa, x1 = 0.0995 | 0.3348
303 K, 101.33 kPa, x1 = 0.1996 | 0.4052
303 K, 101.33 kPa, x1 = 0.2995 | 0.5115
303 K, 101.33 kPa, x1 = 0.4012 | 0.6522
303 K, 101.33 kPa, x1 = 0.5004 | 0.8535
303 K, 101.33 kPa, x1 = 0.6 | 1.167
303 K, 101.33 kPa, x1 = 0.6983 | 1.608
303 K, 101.33 kPa, x1 = 0.7965 | 2.139
303 K, 101.33 kPa, x1 = 0.8984 | 2.867
303.15 K, 100 kPa, x1 = 0.0277 | 0.3116
303.15 K, 100 kPa, x1 = 0.05 | 0.3153
303.15 K, 100 kPa, x1 = 0.1 | 0.343
303.15 K, 100 kPa, x1 = 0.1976 | 0.4107
303.15 K, 100 kPa, x1 = 0.2999 | 0.5173
303.15 K, 100 kPa, x1 = 0.3999 | 0.6524
303.15 K, 100 kPa, x1 = 0.5 | 0.885
303.15 K, 100 kPa, x1 = 0.6002 | 1.194
303.15 K, 100 kPa, x1 = 0.7 | 1.569
303.15 K, 100 kPa, x1 = 0.8 | 2.091
303.15 K, 100 kPa, x1 = 0.9096 | 2.945
303.15 K, 101.33 kPa, x2 = 0.0954 | 2.883
303.15 K, 101.33 kPa, x2 = 0.1918 | 2.18
303.15 K, 101.33 kPa, x2 = 0.2892 | 1.6
303.15 K, 101.33 kPa, x2 = 0.3876 | 1.19
303.15 K, 101.33 kPa, x2 = 0.487 | 0.8951
303.15 K, 101.33 kPa, x2 = 0.5874 | 0.6793
303.15 K, 101.33 kPa, x2 = 0.689 | 0.5301
303.15 K, 101.33 kPa, x2 = 0.7915 | 0.4188
303.15 K, 101.33 kPa, x2 = 0.8952 | 0.3557
308.15 K, 100 kPa, x1 = 0.0277 | 0.2979
308.15 K, 100 kPa, x1 = 0.05 | 0.3006
308.15 K, 100 kPa, x1 = 0.1 | 0.3256
308.15 K, 100 kPa, x1 = 0.1976 | 0.3877
